Values of other authors in patent US20020054921A1, “Use of phyllanthus components for the treatment or prophylaxis of infections triggered by flavivirdae” (priority 2000, published 2002).

How the values were obtained:
[1] = target: T1, cAMP-dependent protein kinase of the rat liver (Rattus norvegicus, UniProt P27791)
T1 construct: the cAMP-dependent protein kinase of the rat liver; host or cells: rat liver

[2] = system: Ca^2+-dependent protein kinase of the wheat embryo; conditions: wheat embryo Ca^2+-dependent protein kinase
[3] = system: Ca^2+ and phospholipid-dependent protein kinase C (PKC) of the rat brain
Staphylococcus aureus = conditions: 0.1 ml added; extract 50 mg/ml, streptomycin 10 mg/ml
Bacillus subtilis = conditions: 0.1 ml added; extract 50 mg/ml, streptomycin 10 mg/ml

Row | Compound | inhibition of protein kinase [1] | inhibition of protein kinase [2] | inhibition of protein kinase [3] | inhibition zone (Staphylococcus aureus) [mm] | inhibition zone (Bacillus subtilis) [mm]
1 | O=C1OC2C3OC(=O)C4=CC(=O)C5(O)Oc6c(O)c(O)cc(c6C4C5(O)O)C(=O)OC2C(OC(=O)c2cc(O)c(O)c(O)c2)OC3COC(=O)c2cc(O)c(O)c3c2C2C1=CC(=O)C(O)(O3)C2(O)O (centres unmarked) [amariin] | most effective | most effective | most effective |  | 
2 | [H]/N=C(/N)N[C@H]1[C@H](O)[C@@H](O)[C@H](O[C@@H]2O[C@@H](C)[C@](O)(C=O)[C@H]2O[C@@H]2O[C@@H](CO)[C@H](O)[C@@H](O)[C@@H]2NC)[C@@H](N/C(N)=N\[H])[C@@H]1O [streptomycin] |  |  |  | 35 | 35
3 | geraiin | most effective | most effective | most effective |  | 
